# Laboratory results from PubChem BioAssay AID200 (DTP/NCI, 2004).
# Values joined by “and” are separate entries in the source; they are usually repeats but may differ in a detail not shown here. Equal entries are not always repeated. Inconclusive results and toxic doses are left out.
# System: B6C3F1 mice, B16 melanoma ip, median survival T/C
# Experiment: NCI In Vivo Anticancer Drug Screen. Data for tumor model B16 Melanoma (intraperitoneal) in B6C3F1 mice
# Conditions: endpoint: median survival time, higher = longer survival
# Outline: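 Mice bearing transplanted tumor were dosed with compound or vehicle, and survival was recorded. Activity is expressed as the treated-group measurement (T) divided by the vehicle control measurement (C).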
# [1] = dose: 25.0 mg/kg/injection, schedule: Q01DX009 (ip), vehicle: saline with Tween-80
# [2] = dose: 50.0 mg/kg/injection, schedule: Q01DX009 (ip), vehicle: saline with Tween-80
# [3] = dose: 100.0 mg/kg/injection, schedule: Q01DX009 (ip), vehicle: saline with Tween-80
smiles,measurement,setting,value
CC(C)CC(NC=O)C(=O)O (configuration not stated),T/C,"dose: 25.0 mg/kg/injection, schedule: Q01DX009 (ip), vehicle: Klucel (hydroxypropylcellulose) (HPC)",103 % of control
same,T/C,"dose: 50.0 mg/kg/injection, schedule: Q01DX009 (ip), vehicle: Klucel (hydroxypropylcellulose) (HPC)",103 % of control
same,T/C,"dose: 100.0 mg/kg/injection, schedule: Q01DX009 (ip), vehicle: Klucel (hydroxypropylcellulose) (HPC)",92 % of control and 100 % of control
N#C[C@H](OC1OC(COC2OC(CO)C(O)C(O)C2O)C(O)C(O)C1O)c1ccccc1 (some centres not stated),T/C,"dose: 12.5 mg/kg/injection, schedule: Q01DX009 (oral), vehicle: saline",96 % of control
same,T/C,"dose: 25.0 mg/kg/injection, schedule: Q01DX009 (ip), vehicle: suspension in saline",98 % of control
same,T/C,"dose: 25.0 mg/kg/injection, schedule: Q01DX009 (oral), vehicle: saline",101 % of control
same,T/C,"dose: 50.0 mg/kg/injection, schedule: Q01DX009 (ip), vehicle: suspension in saline",98 % of control
same,T/C,"dose: 50.0 mg/kg/injection, schedule: Q01DX009 (oral), vehicle: saline",98 % of control (2×) and 102 % of control
same,T/C,"dose: 100.0 mg/kg/injection, schedule: Q01DX009 (ip), vehicle: suspension in saline",108 % of control
same,T/C,"dose: 200.0 mg/kg/injection, schedule: Q01DX009 (ip), vehicle: suspension in saline",121 % of control
same,T/C,"dose: 400.0 mg/kg/injection, schedule: Q01DX009 (ip), vehicle: suspension in saline",103 % of control
same,T/C,"dose: 800.0 mg/kg/injection, schedule: Q01DX009 (ip), vehicle: suspension in saline",111 % of control
CC(C)n1cc2c(N)ncnc2n1,T/C,[1],93 % of control
same,T/C,[2],91 % of control
same,T/C,[3],86 % of control
CC1(C)OCC2OC=CC(=O)C2O1 (configuration not stated),T/C,[1],102 % of control
same,T/C,[2],100 % of control
same,T/C,[3],97 % of control
same,T/C,"dose: 200.0 mg/kg/injection, schedule: Q01DX009 (ip), vehicle: saline with Tween-80",105 % of control
same,T/C,"dose: 400.0 mg/kg/injection, schedule: Q01DX009 (ip), vehicle: saline with Tween-80",95 % of control
CC(=O)OCC12C3CC(=O)OC1C(OC(=O)C=C(C)C)C1C(C)=CC(=O)C(OC(C)=O)C1(C)C2C(=O)C(OC(C)=O)C3C (configuration not stated),T/C,"dose: 0.5 mg/kg/injection, schedule: Q01DX009 (ip), vehicle: distilled water + Tween-80",93 % of control
same,T/C,"dose: 1.0 mg/kg/injection, schedule: Q01DX009 (ip), vehicle: distilled water + Tween-80",101 % of control
same,T/C,"dose: 2.0 mg/kg/injection, schedule: Q01DX009 (ip), vehicle: distilled water + Tween-80",118 % of control
same,T/C,"dose: 4.0 mg/kg/injection, schedule: Q01DX009 (ip), vehicle: distilled water + Tween-80",93 % of control
same,T/C,"dose: 8.0 mg/kg/injection, schedule: Q01DX009 (ip), vehicle: distilled water + Tween-80",98 % of control
COc1ccccc1Cc1c(OC)cc(OC)c(C(=O)CCc2ccccc2)c1O,T/C,"dose: 4.3 mg/kg/injection, schedule: Q01DX009 (ip), vehicle: other",101 % of control
same,T/C,"dose: 6.4 mg/kg/injection, schedule: Q01DX009 (ip), vehicle: other",92 % of control
same,T/C,"dose: 9.6 mg/kg/injection, schedule: Q01DX009 (ip), vehicle: other",89 % of control
same,T/C,"dose: 14.0 mg/kg/injection, schedule: Q01DX009 (ip), vehicle: other",94 % of control
C1CN1P1(N2CC2)=NP(N2CC2)(N2CC2)=NP(N2CC2)(N2CC2)=N1,T/C,"dose: 1.0 mg/kg/injection, schedule: Q01DX009 (ip), vehicle: Klucel (hydroxypropylcellulose) (HPC)",116 % of control and 94 % of control
same,T/C,"dose: 1.0 mg/kg/injection, schedule: Q02DX009 (ip), vehicle: Klucel (hydroxypropylcellulose) (HPC)",113 % of control and 114 % of control
same,T/C,"dose: 2.0 mg/kg/injection, schedule: Q01DX009 (ip), vehicle: Klucel (hydroxypropylcellulose) (HPC)",119 % of control
same,T/C,"dose: 2.0 mg/kg/injection, schedule: Q02DX009 (ip), vehicle: Klucel (hydroxypropylcellulose) (HPC)",114 % of control and 106 % of control
same,T/C,"dose: 4.0 mg/kg/injection, schedule: Q02DX009 (ip), vehicle: Klucel (hydroxypropylcellulose) (HPC)",120 % of control and 122 % of control
same,T/C,"dose: 8.0 mg/kg/injection, schedule: Q01DX009 (ip), vehicle: Klucel (hydroxypropylcellulose) (HPC)",180 % of control
same,T/C,"dose: 8.0 mg/kg/injection, schedule: Q02DX009 (ip), vehicle: Klucel (hydroxypropylcellulose) (HPC)",117 % of control
same,T/C,"dose: 16.0 mg/kg/injection, schedule: Q02DX009 (ip), vehicle: Klucel (hydroxypropylcellulose) (HPC)",195 % of control
